Laboratory results published in patent publication US6387885B1, “3′,3′-N-bis-desmethyl-3′-N-cycloalkyl erythromycin derivatives as LHRH antagonists” (Abbott Laboratories, priority 1998, dated 2002).

system: not given; assay: not given; settings: not given

melting point	Structure (SMILES)
276 to 278 °C	CC[C@H]1OC(=O)[C@H](C)[C@@H](O[C@H]2C[C@@](C)(OC)[C@@H](O)[C@H](C)O2)[C@H](C)[C@@H](O[C@@H]2O[C@H](C)C[C@H](N3C(C)CCC3C)[C@H]2O)[C@](C)(OC)C[C@@H](C)C(=O)[C@H](C)[C@H]2N(CCc3ccc(F)c(Cl)c3)C(=O)O[C@]12C (single isomer, unassigned) [Example 6, 3′-Desamino-3′-N-(2,5-dimethylpyrrolidinyl)-11-deoxy-11-[carboxy-(3-chloro-4-fluorophenethylamino)]-6-O-methyl-erythromycin A 11,12-(cyclic carbamate)]
258 to 260 °C	CC[C@H]1OC(=O)[C@H](C)[C@@H](O[C@H]2C[C@@](C)(OC)[C@@H](O)[C@H](C)O2)[C@H](C)[C@@H](O[C@@H]2O[C@H](C)C[C@H](N3C(C)CCC3C)[C@H]2O)[C@](C)(OC)C[C@@H](C)C(=O)[C@H](C)[C@H]2N(CCc3ccc(Cl)c(Cl)c3)C(=O)O[C@]12C (single isomer, unassigned) [Example 5, 3′-Desamino-3′S-N-(2,5-dimethylpyrrolidinyl)-11-deoxy-11-[carboxy-(3,4-dichlorophenethylamino)]-6-O-methyl-erythromycin A 11,12-(cyclic carbamate)]

biological target: T1, LHRH rat pituitary receptor (Rattus norvegicus, UniProt P30969); assay: LHRH rat pituitary receptor binding (in vitro); settings: method of Haviv et al. J. Med. Chem. 32: 2340-2344 (1989), read-out: pKI (receptor binding affinity; negative logarithm of the equilibrium dissociation constant) (converted)
T1 construct: from tissue; host or cells: rat pituitary
T1 sequence (P30969 1-327): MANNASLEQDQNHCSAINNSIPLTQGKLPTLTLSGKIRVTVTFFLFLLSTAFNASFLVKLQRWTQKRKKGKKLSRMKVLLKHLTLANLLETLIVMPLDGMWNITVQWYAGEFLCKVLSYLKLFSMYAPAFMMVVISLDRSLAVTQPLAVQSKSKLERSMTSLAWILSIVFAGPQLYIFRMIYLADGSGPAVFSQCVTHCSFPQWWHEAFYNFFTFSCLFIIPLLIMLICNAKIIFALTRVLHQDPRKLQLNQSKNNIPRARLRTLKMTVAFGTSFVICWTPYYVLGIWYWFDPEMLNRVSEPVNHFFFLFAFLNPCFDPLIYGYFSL
Experimental: Representative compounds of the present invention were evaluated in in vitro tests for LHRH rat pituitary receptor binding (pKI). The tests employed the methods detailed in F. Haviv, et al. J. Med. Chem., 32: 2340-2344 (1989). The receptor binding affinity (pKI) is the negative logarithms of the equilibrium dissociation constants.

Ki	Structure (SMILES)
5.62 nM	CC[C@H]1OC(=O)[C@H](C)[C@@H](O[C@H]2C[C@@](C)(OC)[C@@H](O)[C@H](C)O2)[C@H](C)[C@@H](O[C@@H]2O[C@H](C)C[C@H](N3CCCCC3)[C@H]2O)[C@](C)(OC)C[C@@H](C)C(=O)[C@H](C)[C@H]2N(CCc3ccc(F)c(Cl)c3)C(=O)O[C@]12C [Example 4, 3′-Desamino-3′-N-piperidinyl-11-deoxy-11-[carboxy-(3-chloro-4-fluorophenethylamino)]-6-O-methyl-erythromycin A 11,12-(cyclic carbamate)]
0.759 nM	CC[C@H]1OC(=O)[C@H](C)[C@@H](O[C@H]2C[C@@](C)(OC)[C@@H](O)[C@H](C)O2)[C@H](C)[C@@H](O[C@@H]2O[C@H](C)C[C@H](N3C(C)CCC3C)[C@H]2O)[C@](C)(OC)C[C@@H](C)C(=O)[C@H](C)[C@H]2N(CCc3ccc(F)c(Cl)c3)C(=O)O[C@]12C (single isomer, unassigned) [Example 6, 3′-Desamino-3′-N-(2,5-dimethylpyrrolidinyl)-11-deoxy-11-[carboxy-(3-chloro-4-fluorophenethylamino)]-6-O-methyl-erythromycin A 11,12-(cyclic carbamate)]
1.17 nM	CC[C@H]1OC(=O)[C@H](C)[C@@H](O[C@H]2C[C@@](C)(OC)[C@@H](O)[C@H](C)O2)[C@H](C)[C@@H](O[C@@H]2O[C@H](C)C[C@H](N3C(C4CC4)CCCC3C3CC3)[C@H]2O)[C@](C)(OC)C[C@@H](C)C(=O)[C@H](C)[C@H]2N(CCc3ccc(F)c(Cl)c3)C(=O)O[C@]12C (stereo partly drawn) [Example 11, 3′-Desamino-3′-N-(2,6-biscyclopropylpiperidinyl)-11-deoxy-11-[carboxy-(3-chloro-4-fluorophenethylamino)]-6-O-methyl-erythromycin A 11,12-(cyclic carbamate)]
1.74 nM	CCC1CCC(CC)N1[C@H]1C[C@@H](C)O[C@@H](O[C@@H]2[C@@H](C)[C@H](O[C@H]3C[C@@](C)(OC)[C@@H](O)[C@H](C)O3)[C@@H](C)C(=O)O[C@H](CC)[C@@]3(C)OC(=O)N(CCc4ccc(Cl)c(Cl)c4)[C@@H]3[C@@H](C)C(=O)[C@H](C)C[C@@]2(C)OC)[C@@H]1O (stereo partly drawn) [Example 9, 3′-Desamino-3′-N-(2,5-diethylpyrrolidinyl)-11-deoxy-11-[carboxy-(3,4-dichlorophenethylamino)]-6-O-methyl-erythromycin A 11,12-(cyclic carbamate)]
3.55 nM	CC[C@H]1OC(=O)[C@H](C)[C@@H](O[C@H]2C[C@@](C)(OC)[C@@H](O)[C@H](C)O2)[C@H](C)[C@@H](O[C@@H]2O[C@H](C)C[C@H](N3CCCCC3)[C@H]2O)[C@](C)(OC)C[C@@H](C)C(=O)[C@H](C)[C@H]2N(CCc3ccc(Cl)c(Cl)c3)C(=O)O[C@]12C [Example 3, 3′-Desamino-3′-N-piperidinyl-11-deoxy-11-[carboxy-(3,4-dichlorophenethylamino)]-6-O-methyl-erythromycin A 11,12-(cyclic carbamate)]
1.23 nM	CC[C@H]1OC(=O)[C@H](C)[C@@H](O[C@H]2C[C@@](C)(OC)[C@@H](O)[C@H](C)O2)[C@H](C)[C@@H](O[C@@H]2O[C@H](C)C[C@H](N3C(C)CCC3C)[C@H]2O)[C@](C)(OC)C[C@@H](C)C(=O)[C@H](C)[C@H]2N(CCc3ccc(Cl)c(Cl)c3)C(=O)O[C@]12C (single isomer, unassigned) [Example 5, 3′-Desamino-3′S-N-(2,5-dimethylpyrrolidinyl)-11-deoxy-11-[carboxy-(3,4-dichlorophenethylamino)]-6-O-methyl-erythromycin A 11,12-(cyclic carbamate)]
2.45 nM	CC[C@H]1OC(=O)[C@H](C)[C@@H](O[C@H]2C[C@@](C)(OC)[C@@H](O)[C@H](C)O2)[C@H](C)[C@@H](O[C@@H]2O[C@H](C)C[C@H](N3C(C)CCCC3C)[C@H]2O)[C@](C)(OC)C[C@@H](C)C(=O)[C@H](C)[C@H]2N(CCc3ccc(F)c(Cl)c3)C(=O)O[C@]12C (single isomer, unassigned) [Example 8, 3′-Desamino-3′-N-(2,6-dimethylpiperidinyl)-11-deoxy-11-[carboxy-(3-chloro-4-fluorophenethylamino)]-6-O-methyl-erythromycin A 11,12-(cyclic carbamate)]
0.676 nM	CCC1CCC(CC)N1[C@H]1C[C@@H](C)O[C@@H](O[C@@H]2[C@@H](C)[C@H](O[C@H]3C[C@@](C)(OC)[C@@H](O)[C@H](C)O3)[C@@H](C)C(=O)O[C@H](CC)[C@@]3(C)OC(=O)N(CCc4ccc(F)c(Cl)c4)[C@@H]3[C@@H](C)C(=O)[C@H](C)C[C@@]2(C)OC)[C@@H]1O (mixture of isomers) [Example 10, 3′-Desamino-3′-N-(2,5-diethylpyrrolidinyl)-11-deoxy-11-[carboxy-(3-chloro-4-fluorophenethylamino)]-6-O-methyl-erythromycin A 11,12-(cyclic carbamate)]
2.57 nM	CC[C@H]1OC(=O)[C@H](C)[C@@H](O[C@H]2C[C@@](C)(OC)[C@@H](O)[C@H](C)O2)[C@H](C)[C@@H](O[C@@H]2O[C@H](C)C[C@H](N3C(C)CCCC3C)[C@H]2O)[C@](C)(OC)C[C@@H](C)C(=O)[C@H](C)[C@H]2N(CCc3ccc(Cl)c(Cl)c3)C(=O)O[C@]12C (single isomer, unassigned) [Example 7, 3′-Desamino-3′-N-(2,6-dimethylpiperidinyl)-11-deoxy-11-[carboxy-(3,4-dichlorophenethylamino)]-6-O-methyl-erythromycin A 11,12-(cyclic carbamate)]
1.82 nM	CC[C@H]1OC(=O)[C@H](C)[C@@H](O[C@H]2C[C@@](C)(OC)[C@@H](O)[C@H](C)O2)[C@H](C)[C@@H](O[C@@H]2O[C@H](C)C[C@H](N3CCCC3)[C@H]2O)[C@](C)(OC)C[C@@H](C)C(=O)[C@H](C)[C@H]2N(CCc3ccc(Cl)c(Cl)c3)C(=O)O[C@]12C [Example 1, 3′-Desamino-(3′S)-N-pyrrolidinyl-11-deoxy-11-[carboxy-(3,4-dichlorophenethylamino)]-6-O-methyl-erythromycin A 11,12-(cyclic carbamate)]
